Measurements as given in patent US20100324285A1, “ANTIINFLAMMATORY AGENT COMPRISING 2-AMINOPHENOL OR DERIVATIVE THEREOF AS ACTIVE INGREDIENT” (priority 2006, published 2010).

What was measured:
RBL-2H3 = assay: Degranulation reaction of basocyte (β-hexosaminidase release); assay type: cell-based, rat; conditions: for concentration at which inhibiting activity on degranulation was exerted: summary of Table 3
Description: Degranulation rate (%) and inhibition rate of degranulation (%) were calculated based on the measurements of β-hexosaminidase activity in the granules released from the cells by degranulation reaction.
Rat cancer cells from basocyte RBL-2H3(catalognumber“JCRB0023”, commercialized by Health Science Research Resources Bank of Japan Health Sciences Foundation), known to be degranulated by cross-linkage of IgE, were used after cultured in a MEM medium (commercialized by Nissui Pharmaceutical Co., Ltd.) supplemented with 10% (v/v) FCS.
The above cells were recovered from a flask by conventional trypsin-EDTA treatment, then suspended in a MEM medium supplemented with 10% (v/v) FCS to give a cell concentration of 5×10^5 cells/ml. The suspension was inoculated to a 24-well microplate in a volume of 400 μl per well, cultured in a 5% (v/v) carbon dioxide incubator for 3 to 5 hours, then admixed with 0.625 μg/ml of anti dinitrophenol (hereinafter abbreviated as “DNP”) mouse IgE (commercialized by Sigma-Aldrich, Inc., diluted by MEM medium supplied with 10% (v/v) FCS) in a volume of 100 μl per well to sensitize the cells by IgE (a final concentration of the anti DNP-IgE was 0.125 μg/ml). After the cells were cultured in the 5% (v/v) carbon dioxide incubator overnight, the supernatant was removed by suction, and then each well was washed twice with Siraganian buffer (119 mM NaCl, 5 mM KCl, 0.4 mM MgCl2, 25 mM piperazine-N,N″-bis(2-ethane sulfonic acid) (PIPES), 40 mM NaOH, pH 7.2) by 500 μl per well. After admixed with Siraganian buffer containing 0.1% bovine serum albumin (BSA), 5.6 mM glucose and 1 mM CaCl2 (hereinafter described as “BSA-containing Siraganian buffer) in a volume of 160 μl per well, the microplate was warmed at 37° C. for 15 minutes. As test samples, 2-aminophenoxazine-3-one (questiomycin A), arbutin having skin-whitening effect and oxatomide used as therapeutic agents for allergic diseases (positive control) were diluted with BSA-containing Siraganian buffer to give the concentrations shown in Table 3, any of the test samples was added by 20 μl per well, then the microplate was warmed at 37° C. for 15 minutes (wells with the test samples). The well with any of the test samples was admixed with DNP-albumin (commercialized by Sigma-Aldrich, Inc.) diluted with BSA-containing Siraganian buffer to give a concentration of 50 μg/ml by 20 μl per well, and warmed at 37° C. for 15 minutes. After the 24-well microplate was cooled on ice for 10 minutes, the supernatant was collected and 100 μl thereof was injected into a 96-well microplate to measure the β-hexosaminidase activity in the supernatant. As negative control, BL-2H3 cells were cultured and treated in the same way as the wells admixed with the test samples except for that FCS-supplemented MEM medium containing no antibody was used, and the β-hexosaminidase activity in the supernatant was measured (the well without IgE sensitization). After the supernatants were removed from some of the wells without IgE sensitization, the wells were washed twice with BSA-containing Siraganian buffer and admixed with BSA-containing Siraganian buffer by 200 μl per well. The cells were broken by twice repeating freezing at −80° C. and thawing, whole medium containing the broken cells was collected, centrifuged at 1,500 rpm for 10 minutes, and then 100 μl of the supernatant was injected into a 96-well microplate to measure the β-hexosaminidase activity of the whole granule extract.
Each well of the 96-well microplate injected with any of the supernatant from the wells with the test samples, the supernatant from the wells without IgE sensitization or the whole granule extract described above was admixed with 50 μl of citrate buffer (pH 4.5) containing 1 mM 4-nitrophenyl-N-acetyl-β-glucosaminide (PNAG) as substrate, kept at 37° C. for 1 hour, and then the reaction was stopped by adding 50 μl of 0.1 M sodium carbonate (pH 10.5). […]

[1] = system: Mouse melanoma cell line B16; assay: Melanin synthesis in B16 cells; assay type: cell-based; conditions: for Amount of melanin (%): 5 days, per mg protein versus control; for inhibiting effect on melanin production in combinational use: used with 2-aminophenoxsazine-3-one
Description: (§1) As control, a system with no test sample was provided. […] The amount of protein was measured by conventional Bradfordmethod and the amount of melanin per 1 mg of protein was calculated. The amount of melanin (%) was calculated according to Formula 4, and the living cell rate (%) was calculated according to Formula 5.
As control, a system with no test sample was provided. […] The amount of protein was measured by conventional Bradford method and the amount of melanin per 1 mg of protein was calculated. The amount of melanin (%) was calculated according to Formula 4.

RAW264.7 cells [2] = assay: NO production by macrophage RAW264.7, Griess method; assay type: cell-based, mouse; conditions: LPS + IFN-γ, 2 days, relative level versus control
From the text: As macrophage cells, RAW264.7 cell strain from mouse or macrophage cells obtained from laboratory animals such as mouse can be used. The amount of produced NO can be measured by conventional Griess method. […] RAW264.7 cells, a murine macrophage cell strain, were suspended in PRMI1640 medium supplied with 10% (v/v) fetal calf serum (hereinafter abbreviated as “FCS”) to give a cell suspension with a cell concentration of 1×10^6 cells/ml. […] The experimental system without the test samples described above was set as control. […] NO production, PGE2 production and macrophage growth are indicated as relative levels versus controls.

RAW264.7 cells [3] = assay: PGE2 production by macrophage RAW264.7, PGE2-EIA kit; assay type: cell-based, mouse; conditions: LPS + IFN-γ, 2 days, relative level versus control
From the text: (§2) RAW264.7 cells, a murine macrophage cell strain, were suspended in PRMI1640 medium supplied with 10% (v/v) fetal calf serum (hereinafter abbreviated as “FCS”) to give a cell suspension with a cell concentration of 1×10^6 cells/ml. […] The experimental system without the test samples described above was set as control. […] NO production, PGE2 production and macrophage growth are indicated as relative levels versus controls.

RAW264.7 cells [4] = assay: Macrophage growth, living cell count; assay type: cell-based, mouse; conditions: 2 days, relative level versus control
From the text: as §2

[5] = system: Mouse melanoma cell line B16; assay: Living cell rate of B16 cells; conditions: mouse, 5 days
Description: as §1

## OC[C@H]1O[C@@H](Oc2ccc(O)cc2)[C@H](O)[C@@H](O)[C@@H]1O [AB, arbutin]
RBL-2H3; Rattus norvegicus, RBL-2H3, 31.3 μM, read-out: Inhibition intensity of degranulation
  inhibition at 31.3 µM: -30 to 30%
RBL-2H3; Rattus norvegicus, RBL-2H3, 200 μM, read-out: Inhibition intensity of degranulation
  inhibition at 200 µM: -30 to 30%
RBL-2H3; Rattus norvegicus, RBL-2H3, 500 μM, read-out: Inhibition intensity of degranulation
  inhibition at 500 µM: -30 to 30%
RBL-2H3; Rattus norvegicus, RBL-2H3, 2000 μM, read-out: Inhibition intensity of degranulation
  inhibition at 2000 µM: -30 to 30%
RBL-2H3
  concentration at which inhibiting activity on degranulation was exerted: no inhibition activity on degranulation

## O=C1O[C@H]([C@@H](O)CO)C(O)=C1O[C@H]1O[C@H](CO)[C@@H](O)[C@H](O)[C@H]1O [Ascorbic acid 2-glucoside, ascorbic acid 2-glucoside]
[1]; 2 mM
  Amount of melanin (%): 80%
[1]; 4 mM
  Amount of melanin (%): 68%
[1]; 8 mM
  Amount of melanin (%): 63%
[1]
  inhibiting effect on melanin production in combinational use: synergistically exert inhibiting effect on melanin production

## COc1ccc2c(c1)c(CC(=O)O)c(C)n2C(=O)c1ccc(Cl)cc1 [IN, indomethacin]
RAW264.7 cells [2]; 0.16 μM
  NO production (%): 86%
RAW264.7 cells [2]; 0.31 μM
  NO production (%): 84%
RAW264.7 cells [2]; 0.63 μM
  NO production (%): 81%
RAW264.7 cells [2]; 1.3 μM
  NO production (%): 82%
RAW264.7 cells [2]; 2.5 μM
  NO production (%): 80%
RAW264.7 cells [2]; 5.0 μM
  NO production (%): 80%
RAW264.7 cells [2]; 10 μM
  NO production (%): 78%
RAW264.7 cells [3]; 0.16 μM
  PGE2 production (%): 4%
RAW264.7 cells [3]; 0.31 μM
  PGE2 production (%): 4%
RAW264.7 cells [3]; 0.63 μM
  PGE2 production (%): 4%
RAW264.7 cells [3]; 1.3 μM
  PGE2 production (%): 3%
RAW264.7 cells [3]; 2.5 μM
  PGE2 production (%): 1%
RAW264.7 cells [3]; 5.0 μM
  PGE2 production (%): 2%
RAW264.7 cells [3]; 10 μM
  PGE2 production (%): 1%
RAW264.7 cells [4]; 0.16 μM
  Macrophage growth (%): 102%
RAW264.7 cells [4]; 0.31 μM
  Macrophage growth (%): 104%
RAW264.7 cells [4]; 0.63 μM
  Macrophage growth (%): 108%
RAW264.7 cells [4]; 1.3 μM
  Macrophage growth (%): 117%
RAW264.7 cells [4]; 2.5 μM
  Macrophage growth (%): 120%
RAW264.7 cells [4]; 5.0 μM
  Macrophage growth (%): 122%
RAW264.7 cells [4]; 10 μM
  Macrophage growth (%): 120%

## O=c1cc(CO)occ1O [Koji acid, kojic acid]
[5]; 0.5 mM
  Living cell rate (%): 93%
[5]; 1 mM
  Living cell rate (%): 86%
[5]; 2 mM
  Living cell rate (%): 73%
[1]; 0.5 mM
  Amount of melanin (%): 79%
[1]; 1 mM
  Amount of melanin (%): 71%
[1]; 2 mM
  Amount of melanin (%): 59%
[1]
  inhibiting effect on melanin production in combinational use: synergistically exert inhibiting effect on melanin production

## CS(=O)(=O)Nc1ccc([N+](=O)[O-])cc1OC1CCCCC1 [NS]
RAW264.7 cells [2]; 0.16 μM
  NO production (%): 90%
RAW264.7 cells [2]; 0.31 μM
  NO production (%): 89%
RAW264.7 cells [2]; 0.63 μM
  NO production (%): 87%
RAW264.7 cells [2]; 1.3 μM
  NO production (%): 85%
RAW264.7 cells [2]; 2.5 μM
  NO production (%): 85%
RAW264.7 cells [2]; 5.0 μM
  NO production (%): 88%
RAW264.7 cells [2]; 10 μM
  NO production (%): 84%
RAW264.7 cells [3]; 0.16 μM
  PGE2 production (%): 4%
RAW264.7 cells [3]; 0.31 μM
  PGE2 production (%): 4%
RAW264.7 cells [3]; 0.63 μM
  PGE2 production (%): 2%
RAW264.7 cells [3]; 1.3 μM
  PGE2 production (%): 1%
RAW264.7 cells [3]; 2.5 μM
  PGE2 production (%): 1%
RAW264.7 cells [3]; 5.0 μM
  PGE2 production (%): 5%
RAW264.7 cells [3]; 10 μM
  PGE2 production (%): 2%
RAW264.7 cells [4]; 0.16 μM
  Macrophage growth (%): 95%
RAW264.7 cells [4]; 0.31 μM
  Macrophage growth (%): 97%
RAW264.7 cells [4]; 0.63 μM
  Macrophage growth (%): 99%
RAW264.7 cells [4]; 1.3 μM
  Macrophage growth (%): 102%
RAW264.7 cells [4]; 2.5 μM
  Macrophage growth (%): 100%
RAW264.7 cells [4]; 5.0 μM
  Macrophage growth (%): 105%
RAW264.7 cells [4]; 10 μM
  Macrophage growth (%): 110%

## O=c1[nH]c2ccccc2n1CCCN1CCN(C(c2ccccc2)c2ccccc2)CC1 [OX, oxatomide]
RBL-2H3; Rattus norvegicus, RBL-2H3, 1.5 μM, read-out: Inhibition intensity of degranulation
  inhibition at 1.5 µM: -30 to 30%
RBL-2H3; Rattus norvegicus, RBL-2H3, 5 μM, read-out: Inhibition intensity of degranulation
  inhibition at 5 µM: -30 to 30%
RBL-2H3; Rattus norvegicus, RBL-2H3, 23 μM, read-out: Inhibition intensity of degranulation
  inhibition at 23 µM: 30 to 50%
RBL-2H3; Rattus norvegicus, RBL-2H3, 94 μM, read-out: Inhibition intensity of degranulation
  inhibition at 94 µM: ≥ 50%
RBL-2H3
  concentration at which inhibiting activity on degranulation was exerted: ≥ 23 µM

## OC[C@H]1O[C@H](O[C@H]2O[C@H](CO)[C@@H](O)[C@H](O)[C@H]2O)[C@H](O)[C@@H](O)[C@@H]1O [Trehalose, trehalose]
[1]; 20 mM
  Amount of melanin (%): 82%
[1]; 40 mM
  Amount of melanin (%): 75%
[1]; 80 mM
  Amount of melanin (%): 66%
[1]
  inhibiting effect on melanin production in combinational use: synergistically exert inhibiting effect on melanin production
